Reference: US7109341B2, “Therapeutic amides” (Wayne State University, priority 2002, dated 2006)
Values joined by “and” are separate entries in the source; they are usually repeats but may differ in a detail not shown here. Identical values can stand only once.

Columns and labels:
[1] = tested on: Pancreatic Ductal Adenocarcinoma 03; assay: Evaluation against early stage Pancreatic Ductal Adenocarcinoma 03 in female BDF1 mice (Table 4); type: in vivo, mouse; conditions: IV
Excerpt: The higher dose requirement for compound 14e may be a disadvantage over compound 11b (Cage 14).

[2] = tested on: Mammary Adenocarcinoma 17/ADR; assay: Evaluation against early stage Mammary Adenocarcinoma 17/ADR, C3H/He females (Table 3); type: in vivo; conditions: IV
[3] = tested on: Pancreatic Adenocarcinoma 03; assay: Evaluation against early stage Pancreatic Adenocarcinoma 03 in BDF1 male mice (Table 1); type: in vivo, mouse; conditions: Cage 8; IV; QD 3–5; total 180 mg/kg
[4] = IV; total dose; cited from earlier work
[5] = tested on: Pancreatic Ductal Adenocarcinoma #03; assay: Evaluation against early stage Pancreatic Ductal Adenocarcinoma #03, BD1 female mice (Table 2); conditions: Cage 2; IV; QD3–6, 10; total 300 mg/kg
[6] = tested on: Pancreatic Ductal Adenocarcinoma 03; conditions: footnote, no dose given; cited from earlier work
[7] = Cage 5, 57 mg/kg/injection QD 3–9, total 399 mg/kg
[8] = Cage 6, 38 mg/kg/injection QD 3–9, total 266 mg/kg
[9] = Cage 4, 56 mg/kg/injection QD-1–5 and 10, total 336 mg/kg
[10] = Cage 2, 7.5 mg/kg/inj days 1, 7, total 15 mg/kg

CC(Oc1ccc(Oc2cnc3ccc(Cl)cc3n2)cc1)C(=O)O (racemic) [XK469, reference compound]
% Body Wt Loss at Nadir [1, 7]: −6.7% | % T/C mass [1, 7]: 4.1% | Activity Rating [1, 7]: ++ (1.3–1.9) | Day of Nadir [1, 7]: 8 days | Drug Deaths [1, 7]: 0/5 | Growth Delay [1, 7]: 11.5 days | Log Kill [1, 7]: 1.7 | Median Tumor Mass on Day 14 (Range) [1, 7]: 63 | Tumor Free day-37 [1, 7]: 0/5 | % Body Wt Loss at Nadir [1, 8]: −6.7% | % T/C mass [1, 8]: 8.3% | Activity Rating [1, 8]: ++ (1.3–1.9) | Day of Nadir [1, 8]: 5 days | Drug Deaths [1, 8]: 0/5 | Growth Delay [1, 8]: 9.5 days | Log Kill [1, 8]: 1.4 | Median Tumor Mass on Day 14 (Range) [1, 8]: 126 | Tumor Free day-37 [1, 8]: 0/5 | % Body Wt Loss at Nadir [2, 9]: −7.1% | % T/C mass [2, 9]: 9% | Activity Rating [2, 9]: ++++ (Highly active >2.8) | Day of Nadir [2, 9]: 8 days | Drug Deaths [2, 9]: 0/5 | Growth Delay [2, 9]: 15.5 days | Log Kill [2, 9]: 4.2 | Median Tumor Mass on Day 9 (Range) [2, 9]: 108 | Tumor Free day-21 [2, 9]: 0/5 | Day of Wt. Loss Nadir [3]: 8 days | Drug Deaths (days of death) [3]: no drug deaths and 0/5 | Log Kill [3]: 1.43 and 1.4 | Mean Body Wt. Loss in g/mouse [3]: −3.6 g/mouse | Median tumor burden in mg on day 14 (range) [3]: 189 mg | Percent Body Wt. Loss [3]: −15.5% | T-C [3]: 9 days | T/C % [3]: 11% | Time to 1000 mg days (range) [3]: 20 days | Tumor Free on day 21 [3]: 0/5 | day of body weight recovery [3]: 13 days | MTD (historical) [4]: 450 to 480 mg/kg | Activity Rating [5]: ++++ (Highly active >2.8) | Day of Wt. Loss Nadir [5]: 8 days | Drug Deaths (day of death) [5]: 0/5 | Growth Delay [5]: 28.1 days | Log Cell Kill [5]: 3.3 | Mean Body Wt. Loss (g/mouse) [5]: −3.2 g/mouse | Median Tumor Burden in mg on d18 (Range) [5]: 64 mg | T/C % [5]: 4% | Time in days to 1000 mg (range) [5]: 41.1 days | Tumor Free on d 154 [5]: 1/5 | day of full body weight recovery [5]: ~12 days

COc1cccc2c1C(=O)c1c(O)c3c(c(O)c1C2=O)C[C@@](O)(C(=O)CO)C[C@@H]3O[C@H]1C[C@H](N)[C@H](O)[C@H](C)O1 [Adriamycin, reference compound]
% Body Wt Loss at Nadir [2, 10]: −1.4% | % T/C mass [2, 10]: 90% | Activity Rating [2, 10]: inactive | Day of Nadir [2, 10]: 7 days | Drug Deaths [2, 10]: 0/5 | Growth Delay [2, 10]: 0 days | Log Kill [2, 10]: none | Median Tumor Mass on Day 9 (Range) [2, 10]: 1086 | Tumor Free day-21 [2, 10]: 0/5 | sensitivity of this tumor to standard agents (activity rating) [6]: It is nicely sensitive to Adriamycin (+++ activity). (2.0–2.8)
